Test results: US12433863B2, “Pharmaceutical compositions and uses directed to lysosomal storage disorders” (INTRABIO LIMITED, priority 2016, dated 2025)
Values joined by “and” are separate entries in the source; they are usually repeats but may differ in a detail not shown here. Equal entries are not always repeated.

Experiments:
[1] = tested on: Hexb^−/− mouse (Sandhoff disease model); assay: Sandhoff disease mouse model (lifespan, bar crossing test, step cycle); format: in vivo
Protocol: This study made use of a mouse model of Sandhoff disease, the Hexb^−/− mouse, as described in Jeyakumar et al. (Jeyakumar, M. et al. (1999) Proc. Natl. Acad. Sci. USA 96: 6388-6393).
Wild-type (Hexb^+/+) mice were used as controls.
In FIG. 7A, acetyl-leucine-treated mice were treated with 0.1 g/kg acetyl-leucine from 3 weeks of age. The asterisks (*) indicates a p-value of <0.05 vs untreated Sandhoff mice. Data is average of n=6 mice per group. Without treatment, the median survival time of Sandhoff mice was 112 days. Treatment with acetyl-leucine (0.1 g/kg body weight since 3 weeks of age) increased the median lifespan to 120 days.
The bar crossing test is a method for assessing motor function in mice in which the mouse is placed hanging from the centre of a horizontal bar by its front limbs. A wild-type mouse with normal motor function will be able to engage its hind limbs and thereby move to one of the platforms at either end of the bar, and in doing so complete the test.
An untreated Sandhoff mouse is able to complete the test up until around 11 weeks of age. After this point motor function and hind-limb mobility/engagement have deteriorated to the point to which the mouse cannot complete the test, and will drop from the bar onto the padded surface below.
Step cycle is the length of time taken during locomotion by a limb from the time it leaves the ground until it leaves the ground on the next occasion.
Step cycle time was assessed at 12 weeks of age in untreated and acetyl-leucine treated Sandhoff model mice. Acetyl-leucine treatment constituted 0.1 g/kg body weight acetyl-leucine from 3 weeks of age.

[2] = tested on: patient genetically diagnosed with GM1 Gangliosidosis; assay: Case study of a GM1 Gangliosidosis patient (SARA, mRDS, EQ-5D-5L); format: in vivo, human; details: after one month
Text: The patient in this case study was a person who was genetically diagnosed with GM1 Gangliosidosis and who was not able to stand or walk by themself, was very limited in daily activities (eating, washing, dressing themself was not possible), and had ocular movement disorder, anarthria, and distinct problems in cognitive function and concentration (neurological examination was not possible).
Before treatment was commenced, examination of the patient indicated a Scale for Assessment and Rating of Ataxia (SARA) score of 35/40, a mRDS score of 15, and a EQ-5D-5L visual scale of 50.
The patient was started on therapy with acetyl-leucine at a dose of 1.5 g per day for the first week, followed by a dose of 3 g per day for the second week onwards.

NPC patients = assay: Clinical severity score (CSS) and annual severity increment score (ASIS) in ten NPC patients; format: in vivo, human; details: 4.5 g/day
Text: An NPC patient's severity may be quantified by assigning a clinical severity score (CSS), which assesses various parameters of the disease and gives each parameter a score out of 5 (higher score =greater severity). See Yanjanin et al., “Linear Clinical Progression, Independent of Age of Onset, in Niemann-Pick Disease, Type C,” Am J Med Genet Part B 153B:132-140. In an untreated patient, one can typically predict how the CSS will change over time in an individual, as disease progression appears to be linear. For example, if Patient A moves from a CSS of 8 to a CSS of 12 between month 0 and month 12, it can be predicted that by month 36, the patient will have a CSS of 20. The annual severity increment score (ASIS) quantities the annual rate of change in the CSS, calculated by dividing the CSS of a patient by the patient's age. […] Each year, the patient would be expected to progress by 4 CSS points, such that at 4 years of age, the patient's CSS would be 16. If therapeutic intervention slowed or arrested disease progression, one would expect the patient to have a smaller ASIS score after such therapy than at baseline.
Ten NPC patients were administered acetyl-leucine at 4.5 g/day over long durations. A CSS was determined at baseline, and at various time points, for eye movement, ambulation, speech, swallow, fine motor skills, cognition, memory, and seizures. An overall CSS was calculated at baseline and at each such time point by adding the individual CSS values for each parameter (eye movement, ambulation, etc.).
The ASIS at baseline and each time point was calculated using each patient's CSS and age at the time of assessment. The overall ASIS for each patient at each time point is shown below in Table 15.

[3] = one line per patient, days per Table 5, listed as acetyl-leucine
[4] = one line per patient, score out of 5, listed as acetyl-leucine

CC(=O)NC(CC(C)C)C(=O)O (racemic) [acetyl-DL-leucine]
Average step cycle time ([1]; Sandhoff mice, 12 weeks of age, 0.1 g/kg from 3 weeks, p<0.001 vs untreated): significantly faster average step cycle times
Hind step cycle time ([1]; Sandhoff mice, 12 weeks of age, 0.1 g/kg from 3 weeks, p<0.01 vs untreated): significantly faster hind step cycle times
Front step cycle time ([1]; Sandhoff mice, 12 weeks of age, 0.1 g/kg from 3 weeks, p<0.05 vs untreated): significantly faster front step cycle times
Motor function assessed via the bar-crossing test ([1]; Sandhoff mouse model, 0.1 g/kg body weight from 3 weeks of age): improved motor function and hind-limb mobility/engagement
Lifespan versus untreated Sandhoff mice ([1]; Sandhoff mouse, 0.1 g/kg from 3 weeks of age, p<0.05): statistically significant increase in the lifespan
SARA ([2]; 1.5 g then 3 g per day): 35/40
Clinical re-examination findings [2]: stable general condition, increased gait (more fluent), and stable stance in natural position
mRDS [2]: 16
CSS overall, Time Point 2 (NPC patients; one line per patient (Patient I.D 1-10), days per Table 5, listed as acetyl-leucine): 33 and 12 (3×) and 13 and 23 and 19 and 22 and 11 (2×)
CSS overall, Time Point 3 (NPC patients; [3]): 33 and 11 (2×) and 10 (2×) and 12 and 21 (2×) and 19
CSS overall, Time Point 4 (NPC patients; [3]): 33 and 12 and 21
CSS eye movement, Time Point 4 (NPC patients; one line per patient, score out of 5): 3
CSS ambulation, Time Point 2 (NPC patients; [4]): 5 and 1 (3×) and 2 (5×) and 4
CSS ambulation, Time Point 4 (NPC patients; [4]): 5 and 1 and 2
CSS cognition, Time Point 2 (NPC patients; [4]): 5 and 3 (5×) and 4 (3×) and 2
CSS cognition, Time Point 3 (NPC patients; [4]): 5 and 3 (5×) and 4 (3×)
CSS cognition, Time Point 4 (NPC patients; [4]): 5 and 3 and 4
CSS eye movement, Time Point 2 (NPC patients; [4]): 3 (9×) and 2
CSS eye movement, Time Point 3 (NPC patients; [4]): 3 (7×) and 2 (2×)
CSS fine motor skills, Time Point 2 (NPC patients; [4]): 5 and 1 (6×) and 4 (2×) and 2
CSS fine motor skills, Time Point 3 (NPC patients; [4]): 5 and 1 (5×) and 4 (2×) and 2
CSS fine motor skills, Time Point 4 (NPC patients; [4]): 5 and 1 and 4
CSS memory, Time Point 2 (NPC patients; [4]): 4 (3×) and 1 (5×) and 3 and 0
CSS memory, Time Point 3 (NPC patients; [4]): 4 (2×) and 0 (2×) and 1 (3×) and 3 (2×)
CSS memory, Time Point 4 (NPC patients; [4]): 4 and 1 and 3
CSS seizures, Time Point 2 (NPC patients; [4]): 5 and 0 (9×)
CSS seizures, Time Point 3 (NPC patients; [4]): 5 and 0 (8×)
CSS seizures, Time Point 4 (NPC patients; [4]): 5 and 0 (2×)
CSS speech, Time Point 2 (NPC patients; [4]): 2 (4×) and 1 (6×)
CSS speech, Time Point 3 (NPC patients; [4]): 2 (3×) and 1 (6×)
CSS speech, Time Point 4 (NPC patients; [4]): 2 (2×) and 1
CSS swallow, Time Point 2 (NPC patients; [4]): 4 and 2 (5×) and 3 (3×) and 0
CSS swallow, Time Point 3 (NPC patients; [4]): 4 and 2 (4×) and 3 (3×) and 0
CSS swallow, Time Point 4 (NPC patients; [4]): 4 and 2 and 3
Change in overall CSS over the course of the experiment (NPC patients; ten NPC patients): none of the ten patients showed an overall increase in CSS
